Measurements from patent US6992079B2, “Substituted 11-phenyl-dibenzazepine compounds useful for the treatment or prevention of diseases characterized by abnormal cell proliferation” (President Fellows of Harvard College, priority 1997, dated 2006).
Read-outs that look alike come from different tables or passages of the source.

Columns and labels:
[1] = system: H460 large cell lung carcinoma; assay: Mouse xenograft tumor growth; type: in vivo, CD-1 nude mice
NCI/ADR-RES = assay: In-Vitro Testing SRB panel: Breast Cancer; type: cell-based
HCT-116 = assay: In-Vitro Testing SRB panel: Colon Cancer; type: cell-based
CCRF-CEM = assay: In-Vitro Testing SRB panel: Leukemia; type: cell-based
CARI-1 = assay: In-Vitro Testing SRB panel: Renal Cancer; type: cell-based
MOLT-4 = assay: In-Vitro Testing SRB panel: Leukemia; type: cell-based
IGROV1 = assay: In-Vitro Testing SRB panel: Ovarian Cancer; type: cell-based
NCI-H226 = type: cell-based
SK-OV-3 = assay: In-Vitro Testing SRB panel: Ovarian Cancer; type: cell-based
MALM-3M = assay: In-Vitro Testing SRB panel: Melanoma; type: cell-based
MDA-MB-231/ATCC = assay: In-Vitro Testing SRB panel: Breast Cancer; type: cell-based
ACHN = assay: In-Vitro Testing SRB panel: Renal Cancer; type: cell-based
[2] = system: A2058 metastatic melanoma; assay: Mouse xenograft tumor growth; type: in vivo, CD-1 nude mice
Protocol: NCI-A2058 human melanoma cell line was grown as monolayer culture in Minimum essential medium (D-MEM) supplemented with 10% fetal bovine serum (FBS), 0.1 mM non-essential amino acid, 1.0 mM sodium pyruvate, 100U/ml penicillin, 100 μg/ml streptomycin and 0.25 μg/ml amphotericin B and L-alanyl-1-glutamine (2 mM) at 37° C. in an atmosphere of 5% CO2 in air. The tumor cells were routinely subcultured twice weekly by trypsin-EDTA treatment. The cells were harvested from subconfluent logarithmically growing culture by treatment with typsin-EDTA and counted for tumor inoculation.
An acclimation period of at least 7 days were allowed between animal receipt and commence of tumor inoculation. When the female CD-1 nude mice were more than 6-7 weeks of age (20-25 g), each mouse was subcutaneously injected with 5.0×10^6 NCI-A2058 human melanoma cells in 0.1 ml of PBS solution at the right flank of the mice to induce tumor growth.

SK-MEL-2B = assay: In-Vitro Testing SRB panel: Melanoma; type: cell-based
RXF 393 = assay: In-Vitro Testing SRB panel: Renal Cancer; type: cell-based
[3] = Homo sapiens, read-out: LC50 (the source's name)

COc1ccc2c(c1)CN(C(=O)c1ccc([N+](=O)[O-])cc1)c1ccc(Cl)cc1C2c1ccccc1Cl (centres unmarked) [Compound 30]
tumor growth [1]: showed inhibition of tumor growth | TGI (NCI/ADR-RES): >1.00E−04 Molar | GI50 (NCI/ADR-RES; Homo sapiens): 62.4 µM | CC50 (NCI/ADR-RES; [3]): > 100 µM | Percent Growth (NCI/ADR-RES; Log10 concentration −4.0 Molar): 47% | Percent Growth (NCI/ADR-RES; Log10 concentration −5.0 Molar): 61% | Percent Growth (NCI/ADR-RES; Log10 concentration −6.0 Molar): 104% | Percent Growth (NCI/ADR-RES; Log10 concentration −7.0 Molar): 117% | Percent Growth (NCI/ADR-RES; Log10 concentration −8.0 Molar): 124% | TGI (HCT-116; HCT-116): 1.00E−04 Molar | Percent Growth (HCT-116; HCT-116, Log10 concentration −4.0 Molar): 22% | Percent Growth (HCT-116; HCT-116, Log10 concentration −5.0 Molar): 17% | Percent Growth (HCT-116; HCT-116, Log10 concentration −6.0 Molar): 63% | Percent Growth (HCT-116; HCT-116, Log10 concentration −7.0 Molar): 90% | Percent Growth (HCT-116; HCT-116, Log10 concentration −8.0 Molar): 97% | GI50 (HCT-116; Homo sapiens, HCT-116): 1.91 µM | CC50 (HCT-116; Homo sapiens, HCT-116, read-out: LC50 (the source's name)): > 100 µM | TGI (ERVX; ERVX): >1.00E−04 Molar | Percent Growth (ERVX; ERVX, Log10 concentration −4.0 Molar): 18% | Percent Growth (ERVX; ERVX, Log10 concentration −5.0 Molar): 23% | Percent Growth (ERVX; ERVX, Log10 concentration −6.0 Molar): 78% | Percent Growth (ERVX; ERVX, Log10 concentration −7.0 Molar): 96% | Percent Growth (ERVX; ERVX, Log10 concentration −8.0 Molar): 92% | GI50 (ERVX; Homo sapiens): 3.24 µM | CC50 (ERVX; Homo sapiens, read-out: LC50): > 100 µM | TGI (CCRF-CEM): >1.00E−04 Molar | GI50 (CCRF-CEM; Homo sapiens): 1.85 µM | CC50 (CCRF-CEM; [3]): > 100 µM | Percent Growth (CCRF-CEM; Log10 concentration −4.0 Molar): 39% | Percent Growth (CCRF-CEM; Log10 concentration −5.0 Molar): 22% | Percent Growth (CCRF-CEM; Log10 concentration −6.0 Molar): 60% | Percent Growth (CCRF-CEM; Log10 concentration −7.0 Molar): 70% | Percent Growth (CCRF-CEM; Log10 concentration −8.0 Molar): 73% | TGI (CARI-1; CARI-1): >1.00E−04 Molar | Percent Growth (CARI-1; CARI-1, Log10 concentration −4.0 Molar): 59% | Percent Growth (CARI-1; CARI-1, Log10 concentration −5.0 Molar): 68% | Percent Growth (CARI-1; CARI-1, Log10 concentration −6.0 Molar): 71% | Percent Growth (CARI-1; CARI-1, Log10 concentration −7.0 Molar): 108% | Percent Growth (CARI-1; CARI-1, Log10 concentration −8.0 Molar): 141% | GI50 (CARI-1; Homo sapiens): > 100 µM | CC50 (CARI-1; Homo sapiens, CARI-1, read-out: LC50 (the source's name)): > 100 µM | GI50 (MOLT-4; Homo sapiens, MOLT-4): 1.33 µM | CC50 (MOLT-4; Homo sapiens, MOLT-4, read-out: LC50 (the source's name)): > 100 µM | TGI (MOLT-4; MOLT-4): >1.00E−04 Molar | Percent Growth (MOLT-4; MOLT-4, Log10 concentration −4.0 Molar): 13% | Percent Growth (MOLT-4; MOLT-4, Log10 concentration −5.0 Molar): 23% | Percent Growth (MOLT-4; MOLT-4, Log10 concentration −6.0 Molar): 54% | Percent Growth (MOLT-4; MOLT-4, Log10 concentration −7.0 Molar): 89% | Percent Growth (MOLT-4; MOLT-4, Log10 concentration −8.0 Molar): 103% | GI50 (IGROV1; Homo sapiens, IGROV-1): 6.35 µM | CC50 (IGROV1; Homo sapiens, IGROV-1, IGROV1, read-out: LC50 (the source's name)): > 100 µM | TGI (IGROV1; IGROV1): >1.00E−04 Molar | Percent Growth (IGROV1; IGROV1, Log10 concentration −4.0 Molar): 36% | Percent Growth (IGROV1; IGROV1, Log10 concentration −5.0 Molar): 41% | Percent Growth (IGROV1; IGROV1, Log10 concentration −6.0 Molar): 86% | Percent Growth (IGROV1; IGROV1, Log10 concentration −7.0 Molar): 97% | Percent Growth (IGROV1; IGROV1, Log10 concentration −8.0 Molar): 97% | GI50 (NCI-H226; Homo sapiens, NCI-H226): 3.98 µM | CC50 (NCI-H226; Homo sapiens, NCI-H226, read-out: LC50 (the source's name)): > 100 µM | TGI (NCI-H226; NCI-H226): >1.00E−04 Molar | Percent Growth (NCI-H226; NCI-H226, Log10 concentration −4.0 Molar): 34% | Percent Growth (NCI-H226; NCI-H226, Log10 concentration −5.0 Molar): 35% | Percent Growth (NCI-H226; NCI-H226, Log10 concentration −6.0 Molar): 73% | Percent Growth (NCI-H226; NCI-H226, Log10 concentration −7.0 Molar): 79% | Percent Growth (NCI-H226; NCI-H226, Log10 concentration −8.0 Molar): 83% | GI50 (SK-OV-3; Homo sapiens, SK-OV-3): > 100 µM | CC50 (SK-OV-3; Homo sapiens, SK-OV-3, read-out: LC50 (the source's name)): > 100 µM | TGI (SK-OV-3; SK-OV-3): >1.00E−04 Molar | Percent Growth (SK-OV-3; SK-OV-3, Log10 concentration −4.0 Molar): 66% | Percent Growth (SK-OV-3; SK-OV-3, Log10 concentration −5.0 Molar): 76% | Percent Growth (SK-OV-3; SK-OV-3, Log10 concentration −6.0 Molar): 88% | Percent Growth (SK-OV-3; SK-OV-3, Log10 concentration −7.0 Molar): 95% | Percent Growth (SK-OV-3; SK-OV-3, Log10 concentration −8.0 Molar): 93% | GI50 (MALM-3M; Homo sapiens): 0.342 µM | CC50 (MALM-3M; Homo sapiens, MALM-3M, read-out: LC50 (the source's name)): > 100 µM | TGI (MALM-3M; MALM-3M): 8.35E−05 Molar | Percent Growth (MALM-3M; MALM-3M, Log10 concentration −4.0 Molar): −4% | Percent Growth (MALM-3M; MALM-3M, Log10 concentration −5.0 Molar): 49% | Percent Growth (MALM-3M; MALM-3M, Log10 concentration −6.0 Molar): 16% | Percent Growth (MALM-3M; MALM-3M, Log10 concentration −7.0 Molar): 82% | Percent Growth (MALM-3M; MALM-3M, Log10 concentration −8.0 Molar): 96% | GI50 (MDA-MB-231/ATCC; Homo sapiens, MDA-MB-231): > 100 µM | CC50 (MDA-MB-231/ATCC; Homo sapiens, MDA-MB-231/ATCC, read-out: LC50 (the source's name)): > 100 µM | TGI (MDA-MB-231/ATCC; MDA-MB-231/ATCC): >1.00E−04 Molar | Percent Growth (MDA-MB-231/ATCC; MDA-MB-231/ATCC, Log10 concentration −4.0 Molar): 54% | Percent Growth (MDA-MB-231/ATCC; MDA-MB-231/ATCC, Log10 concentration −5.0 Molar): 54% | Percent Growth (MDA-MB-231/ATCC; MDA-MB-231/ATCC, Log10 concentration −6.0 Molar): 89% | Percent Growth (MDA-MB-231/ATCC; MDA-MB-231/ATCC, Log10 concentration −7.0 Molar): 92% | Percent Growth (MDA-MB-231/ATCC; MDA-MB-231/ATCC, Log10 concentration −8.0 Molar): 106% | TGI (ACHN): >1.00E−04 Molar | CC50 (ACHN; [3]): > 100 µM | Percent Growth (ACHN; Log10 concentration −4.0 Molar): 53% | Percent Growth (ACHN; Log10 concentration −5.0 Molar): 50% | Percent Growth (ACHN; Log10 concentration −6.0 Molar): 94% | Percent Growth (ACHN; Log10 concentration −7.0 Molar): 108% | Percent Growth (ACHN; Log10 concentration −8.0 Molar): 107% | tumor growth [2]: showed inhibition of tumor growth | GI50 (SK-MEL-2B; Homo sapiens, SK-MEL-28): > 100 µM | CC50 (SK-MEL-2B; Homo sapiens, SK-MEL-28, read-out: LC50 (the source's name)): > 100 µM | TGI (SK-MEL-2B; SK-MEL-28): >1.00E−04 Molar | Percent Growth (SK-MEL-2B; SK-MEL-28, Log10 concentration −4.0 Molar): 65% | Percent Growth (SK-MEL-2B; SK-MEL-28, Log10 concentration −5.0 Molar): 70% | Percent Growth (SK-MEL-2B; SK-MEL-28, Log10 concentration −6.0 Molar): 86% | Percent Growth (SK-MEL-2B; SK-MEL-28, Log10 concentration −7.0 Molar): 100% | Percent Growth (SK-MEL-2B; SK-MEL-28, Log10 concentration −8.0 Molar): 101% | GI50 (RXF 393; Homo sapiens, RXF 393): 3.4 µM | CC50 (RXF 393; Homo sapiens, RXF 393, read-out: LC50 (the source's name)): > 100 µM | TGI (RXF 393; RXF 393): >1.00E−04 Molar | Percent Growth (RXF 393; RXF 393, Log10 concentration −4.0 Molar): 20% | Percent Growth (RXF 393; RXF 393, Log10 concentration −5.0 Molar): 23% | Percent Growth (RXF 393; RXF 393, Log10 concentration −6.0 Molar): 81% | Percent Growth (RXF 393; RXF 393, Log10 concentration −7.0 Molar): 97% | Percent Growth (RXF 393; RXF 393, Log10 concentration −8.0 Molar): 90%
